We go through twelve compounds from PMC11207111, “Assessment of the Activity of Nitroisoxazole Derivatives against Trypanosoma cruzi” (Molecules, 2024).

A short description of series [1]: ORAC-FL antioxidant capacity. The following applies: relative to Trolox; phosphate buffer 75 mM, pH 7.4, 37 °C. The method, then:
To corroborate the generation of the nitro radical, the antioxidant capacity of the series under study was determined by ORAC-FL methodology, employing a fluorescent probe to capture oxygen-centered radicals (Table 2). The ORAC-FL values of the studied compounds are close to the reference value of Trolox, indicating a low antioxidant capacity. For compounds (1-3), the presence of amino substituents decreases antioxidant activity due to their […] characteristics, preventing the presence of labile hydrogens. […] Compounds 4 and 10 present similar ORAC indexes as aromatic rings with high electron density insert the transfer of labile protons. Antioxidant capacity was determined using the ORAC-fluorescence methodology (ORAC-FL). The analysis used a 96-well white polystyrene plate reader (EnSpire multimode PerkinElmer, Waltham, MA, USA). The reaction was carried out in phosphate buffer (75 mM, pH 7.4). […] A blank with FL and AAPH, using dimethyl sulfoxide instead of the antioxidant solution, was used in each assay. […] The inhibitor capacity was expressed as ORAC-FL values and quantified by integrating the area under the curve (AUCNET). All reaction mixtures were prepared in triplicate, and at least three independent assays were performed for each sample. The area under the fluorescence decay curve (AUC) was calculated by integrating the fluorescence decay where F0 is the initial fluorescence read at 0 min, and F is the fluorescence read at the time. The AUCNET corresponding to the sample was calculated by subtracting the AUC corresponding to the blank. Data were processed using Origin […].5 SR2 (San Francisco, CA, USA). The ORAC-FL indices were calculated according to the following Equation (1): (1) ORAC-[…]]

Series [2] relates to epimastigote of T. cruzi Dm28. As to the kind of experiment: Trypanocidal activity (MTT) on epimastigotes. It is filed as cell-based. The note with it: Trypanosoma cruzi, 100 µM, 24 h, n.a = not active, read-out: % T. cruzi Epimastigote (trypanocidal effect). The protocol:
As a preliminary step, a study of nitroisoxazole derivatives on the epimastigote form of T. cruzi was performed. Despite the epimastigote form not being a clinical form present in mammals, its easy handling has allowed screening for the trypanocidal activity of various compounds. It is worth noting that, during the intracellular life cycle of the parasite, a form similar to the epimastigote, which is biochemically and morphologically identical to the form present in the vector, has been described. […] RPMI 1640 medium) for 24 h. […] The effects of the compounds on trypomastigote and Vero cell viability were evaluated by tetrazolium salt reduction assay (MTT). […] The plates were kept overnight at 37 °C (28 °C for epimastigotes), and the optical density (OD) was determined using a 96-well microplate reader (Vantaa, Finland) at 570 nm. Under these conditions, the OD is directly proportional to each well’s viable number of cells. The experiments were performed in triplicate across three different assays.

Series [3] in a line: Cyclic voltammetry (reduction of the nitro group). It is filed as physicochemical. More on the design: key to −EpcI / −EpcII / −EpaII / −EpaI: potentials in V vs Ag/AgCl; |ΔEp|: unit not given here. The text has this: The chemistry mechanism of reduction in nitroisoxazole derivatives was investigated using cyclic voltammetry.
The peak near −1.32 V corresponds to a quasi-reversible one-electron transfer, according to the criteria of Nicholson–Shain [26] (Table 1), attributable to the species −NO2/NO2.− . The latter species stable anion radical at room temperature. […] An irreversible peak at −0.93 V to the mono-electronic transfer −HNO2/HNO2.− is observed, coupled with a chemical reaction associated with […] of the formed radical. This was evidenced by the addition of NaOH (1 M), which caused a decrease in the Ic peak (Figure 2c).
As previously described, an irreversible signal assigned to hydroxylamine oxidation to a nitroso derivative is also observed for N-acylhydrazones organometallic compounds with a pendant 5-nitrofuryl group. […] Compound 7, which has the least negative reduction potential, can be attributed to introducing a nitro group in the para position of the nitroisoxazole ring. This effect can also be observed in derivatives containing halogens in the same position.
Electrochemical characterization of the new compounds was performed through cyclic voltammetry (CV) on a 693 VA Metrohm instrument (Tokyo, Japan) equipped with a 694 VA Stand converter and 693 VA processor. Potentials were recorded against the Ag/AgCl reference electrode; a hanging drop of mercury (HDME) was used as a working electrode, and platinum was used as an auxiliary electrode. Tetrabutylammonium perchlorate (TBAP, 0.1 M) in DMSO was used as a supporting electrolyte under an N2 atmosphere at room temperature. Using Nicholson´s procedure, the Ipa/Ipc values (RNO2/RNO2^−) were measured from each cyclic voltammogram with a scan rate between 0.1 and 2.5 V/s.

The test system of series [4] is trypomastigote of T. cruzi Dm28. As to the kind of experiment: Trypanocidal activity (MTT) on trypomastigotes. It is filed as cell-based. The note with it: Trypanosoma cruzi; for killing at 100 µM: 24 h, n.a = not active, read-out: % T. cruzi Trypomastigote (trypanocidal effect). The protocol:
As a preliminary step, a study of nitroisoxazole derivatives on the epimastigote form of T. cruzi was performed. Despite the epimastigote form not being a clinical form present in mammals, its easy handling has allowed screening for the trypanocidal activity of various compounds. It is worth noting that, during the intracellular life cycle of the parasite, a form similar to the epimastigote, which is biochemically and morphologically identical to the form present in the vector, has been described. […] This is consistent with studies by Fonseca-Berzal et al. […] Additionally, compounds with higher activity have aromatic rings as substituents for nitroisoxazoles, confirming what was described Do […] [40]. […] It has also been determined that the presence of an isoxazole is essential for activity, as its aromatic structure contains a weak nitrogen-oxygen bond that, under different reaction conditions, can undergo ring cleavage, increasing activity. The results obtained on epimastigotes cannot be conclusive for determining potential Chagas agents, so conducting studies on the infective, extracellular, non-replicative trypomastigote form of T. cruzi present in humans is essential. […] RPMI 1640 medium) for 24 h. […] The effects of the compounds on trypomastigote and Vero cell viability were evaluated by tetrazolium salt reduction assay (MTT). […] The plates were kept overnight at 37 °C (28 °C for epimastigotes), and the optical density (OD) was determined using a 96-well microplate reader (Vantaa, Finland) at 570 nm. Under these conditions, the OD is directly proportional to each well's viable number of cells. The experiments were performed in triplicate across three different assays.

Series [5] relates to Vero mammalian cells. Kind of series: Cytotoxicity (MTT) on Vero cells. It counts as cell-based. The note with it: Chlorocebus sabaeus, 24 h. The method, then: Additionally, the cytotoxicity of the compounds on VERO mammalian cells was assessed (Table 4). […] It is observed that the majority of the derivatives present considerable cytotoxicity. […] RPMI 1640 medium) for 24 h. […] The effects of the compounds on trypomastigote and Vero cell viability were evaluated by tetrazolium salt reduction assay (MTT). […] The plates were kept overnight at 37 °C (28 °C for epimastigotes), and the optical density (OD) was determined using a 96-well microplate reader (Vantaa, Finland) at 570 nm. Under these conditions, the OD is directly proportional to each well’s viable number of cells. The experiments were performed in triplicate across three different assays.

The mark [6] stands for this setting: cyclic voltammetry at 2.0 V/s, DMSO, 0.1 M TBAP, vs Ag/AgCl.

On to `Cc1noc(/C=C/N(C)C)c1[N+](=O)[O-]` [Compound 1, (E)-N,N-Dimethyl-2-(3-methyl-4-nitroisoxazol-5-yl)ethen-1-amine], for which the melting point (in general, the temperature of the solid-liquid transition) fell in the range of 154 to 156 °C. Also, the “ORAC-FL Index” value in series [1] was 0.9 ± 0.2. The killing at 100 µM in series [2] is 18 ± 1%. In addition, in series [3] (cyclic voltammetry at 2.0 V/s), the Ipa/Ipc is reported as −0.44 and the “|ΔEp|” value is given as 140. In series [3] (setting [6]), the “−EpaII” value worked out at 1.19 and the “−EpcII” value is reported as 1.33.
In turn, `Cc1noc(/C=C/N2CCCC2)c1[N+](=O)[O-]` [Compound 2, (E)-3-Methyl-4-nitro-5-(2-(pyrrolidin-1-yl)vinyl)isoxazole] yielded a melting point of 145 to 147 °C. Also, the “ORAC-FL Index” value in series [1] was 0.14 ± 0.05. In addition, in series [2], the killing at 100 µM is 19 ± 3%. In addition, in series [3] (cyclic voltammetry at 2.0 V/s), the Ipa/Ipc was determined as 0.32 and the “|ΔEp|” value was found to be 120. Further, in series [3] (setting [6]), the “−EpaII” value worked out at 1.20 and the “−EpcII” value was found to be 1.32. Further, the “peak potential, quasi-reversible one-electron transfer −NO2/NO2.−” value in series [3] (cyclic voltammogram, Figure 2a) is roughly −1.32 V.
Regarding `Cc1noc(/C=C/c2ccccc2)c1[N+](=O)[O-]` [Compound 4, (E)-3-Methyl-4-nitro-5-styrylisoxazole], the melting point was 176 to 178 °C. Also, the “ORAC-FL Index” value in series [1] turned out to be 0.33 ± 0.06. The killing at 100 µM in series [2] is 47 ± 4%. In addition, in series [3] (cyclic voltammetry at 2.0 V/s), the Ipa/Ipc was −0.09 and the “|ΔEp|” value amounted to 90. For the same compound, in series [3] (setting [6]), the “−EpaII” value is reported as 0.80 and the “−EpcII” value amounted to 0.89. Also, the killing at 100 µM in series [4] was 0%.
Regarding `Cc1noc(/C=C/c2ccc(C(F)(F)F)cc2)c1[N+](=O)[O-]` [Compound 6, (E)-3-Methyl-4-nitro-5-(4-(trifluoromethyl)styryl)isoxazole], the melting point is 187 to 189 °C. Besides, the “ORAC-FL Index” value in series [1] is listed as 0.8 ± 0.1. The killing at 100 µM in series [2] was 28 ± 2%. The “−EpcII” value in series [3] (setting [6]) turned out to be 0.74.
For the compound `Cc1noc(/C=C/c2ccc([N+](=O)[O-])cc2)c1[N+](=O)[O-]` [Compound 7, (E)-3-Methyl-4-nitro-5-(4-nitrostyryl)isoxazole], the melting point was in the range of 225 to 227 °C. For the same compound, in series [1], the “ORAC-FL Index” value was 0.57 ± 0.08. In addition, the killing at 100 µM in series [2] came to 36 ± 2%. Besides, in series [3] (cyclic voltammetry at 2.0 V/s), the Ipa/Ipc is given as −0.44 and the “|ΔEp|” value came out at 70. In series [3] (setting [6]), the “−EpaII” value turned out to be 0.64 and the “−EpcII” value stood at 0.71.
For the compound `Cc1noc(/C=C/c2ccco2)c1[N+](=O)[O-]` [Compound 10, (E)-5-(2-(Furan-2-yl)vinyl)-3-methyl-4-nitroisoxazole], the melting point is 145 to 147 °C. In addition, the “ORAC-FL Index” value in series [1] stood at 0.36 ± 0.07. Besides, the killing at 100 µM in series [2] is 42 ± 2%. In series [3] (cyclic voltammetry at 2.0 V/s), the Ipa/Ipc is recorded as −0.16 and the “|ΔEp|” value was 100. For the same compound, in series [3] (setting [6]), the “−EpaII” value was found to be 0.74 and the “−EpcII” value stood at 0.84.
In turn, `Cc1ccc(-n2cc(/C=C/c3onc(C)c3[N+](=O)[O-])c3ccccc32)cc1` [Compound 14, (E)-3-Methyl-4-nitro-5-(2-(1-(p-tolyl)-1H-indol-3-yl)vinyl)isoxazole] registered a melting point of 208 to 211 °C. Also, the “ORAC-FL Index” value in series [1] is given as 0.4 ± 0.1. In series [2], the killing at 100 µM was found to be 27 ± 2%. Further, in series [3] (cyclic voltammetry at 2.0 V/s), the Ipa/Ipc is recorded as −0.32 and the “|ΔEp|” value came out at 120. In series [3] (setting [6]), the “−EpaII” value turned out to be 0.84, the “−EpcI” value amounted to 0.72 and the “−EpcII” value was found to be 0.96. In addition, the killing at 100 µM in series [4] came out at 3 ± 1%.
In turn, `Cc1noc(/C=C/c2ccccc2Br)c1[N+](=O)[O-]` [Compound 15, (E)-5-(2-Bromostyryl)-3-methyl-4-nitroisoxazole] came in with a melting point of 169 to 172 °C. For the same compound, the “ORAC-FL Index” value in series [1] was found to be 0.8 ± 0.3. For the same compound, the killing at 100 µM in series [2] was 29 ± 2%. In series [3] (cyclic voltammetry at 2.0 V/s), the Ipa/Ipc is listed as −0.14 and the “|ΔEp|” value came out at 100. For the same compound, in series [3] (setting [6]), the “−EpaI” value is recorded as 0.70, the “−EpaII” value is given as 0.95, the “−EpcI” value was 0.80 and the “−EpcII” value is listed as 1.10.
For `Cc1noc(C)c1[N+](=O)[O-]` [Compound P1, 3,5-dimethyl-4-nitroisoxazole], the killing at 100 µM in series [2] was 14 ± 3%.
Turning to `O=CCc1ccc(Br)cc1` [Compound P2, 4-bromophenyl acetaldehyde], the killing at 100 µM in series [2] stood at 5 ± 2%.
For the compound `CC1CS(=O)(=O)CCN1/N=C/c1ccc([N+](=O)[O-])o1` (stereo not drawn) [Nfx, nifurtimox, reference compound], the IC50 – broadly, the midpoint of a concentration-inhibition curve – came out at 172.9 ± 0.1 µM in series [5] and 10.04 ± 0.1 µM in series [4] (T. cruzi Dm28, 24 h). For the same compound, the killing at 100 µM in series [2] turned out to be 98.9 ± 0.3%; in series [4], 74 ± 1%.
Regarding `Cc1c(C)c2c(c(C)c1O)CCC(C)(C(=O)O)O2` (stereo not drawn) [Trolox, reference compound], the “ORAC-FL Index” value in series [1] was determined as 1.00 ± 0.01.
